Laboratory results: article PMC5653977 (EMBO Molecular Medicine, 2017)
Where a name gives a salt, the structure may show the parent alone.

Test system: NRG1-ERBB4 signaling
Assay: Nrg1-ERBB4-PIK3R1 split TEV co-culture compound screen of the NIH Clinical Collection
Assay type: cell-based, human
[1] = compound screen of the NIH Clinical Collection, sheet raw data NCC-003, compounds ranked by Z-score
[2] = NIH Clinical Collection NCC-003 raw data, compounds ranked by Z-score, 'flagged' given instead of a Z-score
[3] = compounds at 10 μM, 24 h, PC12 split TEV assay cells co-cultured with Nrg1-expressing PC12 cells, analysed with cellHTS2

Row | Structure (SMILES) | Z-SCORE [1] | Z-SCORE [3] | also measured
1 | CCN1CCN(c2cc3c(cc2F)c(=O)c(C(=O)O)cn3C2CC2)CC1 [ENROFLOXACIN] | 0.83 |  | 
2 | COc1cccc2c1C(=O)c1c(O)c3c(c(O)c1C2=O)C[C@@](O)(C(=O)CO)C[C@@H]3O[C@H]1C[C@H](N)[C@@H](O)[C@H](C)O1 [EPIRUBICIN HYDROCHLORIDE] |  |  | Z-SCORE [2]: flagged
3 | CN(C)CCC[C@@]1(c2ccc(F)cc2)OCc2cc(C#N)ccc21 [ESCITALOPRAM OXALATE] | -0.11 |  | 
4 | COC(=O)CCc1ccc(OCC(O)CNC(C)C)cc1 (stereo not shown) [ESMOLOL HYDROCHLORIDE] | 0.38 |  | 
5 | COc1ccc2[n-]c([S+]([O-])Cc3ncc(C)c(OC)c3C)nc2c1.COc1ccc2[n-]c([S+]([O-])Cc3ncc(C)c(OC)c3C)nc2c1.[Mg+2] (stereo not shown) [ESOMEPRAZOLE Mg] | 0.45 |  | 
6 | C=C(CC)C(=O)c1ccc(OCC(=O)O)c(Cl)c1Cl [ETHACRYNIC ACID, reference compound] |  | -1.25 | 
7 | C#C[C@]1(O)CC[C@H]2[C@@H]3CCc4cc(O)ccc4[C@H]3CC[C@@]21C [ETHYNYLESTRADIOL] | 0.75 |  | 
8 | C=C1C[C@@H]2[C@H](CC[C@]3(C)C(=O)CC[C@@H]23)[C@@]2(C)C=CC(=O)C=C12 [EXEMESTANE] |  |  | Z-SCORE [2]: -1.23
9 | O=C1[C@H](CC[C@H](O)c2ccc(F)cc2)[C@@H](c2ccc(O)cc2)N1c1ccc(F)cc1 [EZETIMIBE] | 0.64 |  | 
10 | Clc1ccc(COC(Cn2ccnc2)c2ccc(Cl)cc2Cl)cc1 (stereo not shown) [Econazole Nitrate, reference compound] |  | -2.43 | 
11 | O=C(O[C@@H]1Cc2c(O)cc(O)cc2O[C@@H]1c1cc(O)c(O)c(O)c1)c1cc(O)c(O)c(O)c1 [Epigallocatechin gallate] | 1.36 |  | 
12 | CCOC(=O)CCC(=O)O[C@H]1[C@H](O[C@@H]2[C@@H](C)[C@H](O[C@H]3C[C@@](C)(OC)[C@@H](O)[C@H](C)O3)[C@@H](C)C(=O)O[C@H](CC)[C@@](C)(O)[C@H](O)[C@@H](C)C(=O)[C@H](C)C[C@@]2(C)O)O[C@H](C)C[C@@H]1N(C)C [Eryped, reference compound] |  | -0.38 | 
13 | CN1CCN(C(=O)O[C@H]2c3nccnc3C(=O)N2c2ccc(Cl)cn2)CC1 [Eszopiclone, reference compound] |  | 0.38 | 
14 | CC[C@@H](CO)NCCN[C@@H](CC)CO [Ethambutol, reference compound] |  | -0.12 | 
15 | CCc1cc(C(N)=S)ccn1 [Ethionamide, reference compound] |  | 0.42 | 
16 | CC[C@]1(O)CC[C@H]2[C@@H]3CCC4=CCCC[C@@H]4[C@H]3CC[C@@]21C [Ethylestrenol] | -0.98 |  | 
17 | CCc1cccc2c3c([nH]c12)C(CC)(CC(=O)O)OCC3 (stereo not shown) [Etodolac, reference compound] |  | -0.28 | 
18 | COc1cc([C@@H]2c3cc4c(cc3[C@@H](O[C@@H]3O[C@@H]5CO[C@@H](C)O[C@H]5[C@H](O)[C@H]3O)[C@H]3COC(=O)[C@H]23)OCO4)cc(OC)c1O [Etoposide] |  |  | Z-SCORE [2]: -2.67
19 | O=C(c1ccc(OCCN2CCCCC2)cc1)c1c(-c2ccc(O)cc2)sc2cc(O)ccc12 [Evista, reference compound] |  | 1.2 | 
20 | CC(=O)OCC(CCn1cnc2cnc(N)nc21)COC(C)=O [FAMCICLOVIR] | 1.05 |  | 
21 | NC(N)=Nc1nc(CSCCC(N)=NS(N)(=O)=O)cs1 [FAMOTIDINE] |  |  | Z-SCORE [2]: -1.65
22 | CC(C)OC(=O)C(C)(C)Oc1ccc(C(=O)c2ccc(Cl)cc2)cc1 [FENOFIBRATE, reference compound] |  | 0.77 | 
23 | Oc1ccc(C2CNCCc3c2cc(O)c(O)c3Cl)cc1 (stereo not shown) [FENOLDOPAM MESYLATE] | -0.37 |  | 
24 | C[N+]1(CCC(C(N)=O)(c2ccccc2)c2ccccc2)CCCCC1 [FENPIVERINIUM BROMIDE] | -0.58 |  | 

Row | Structure (SMILES) | Z-SCORE [1] | Z-SCORE [3] | also measured
25 | CC(C)(C)NC(=O)[C@H]1CC[C@H]2[C@@H]3CC[C@H]4NC(=O)C=C[C@]4(C)[C@H]3CC[C@]12C [FINASTERIDE] | -0.75 |  | 
26 | COC(=O)Nc1nc2cc(C(=O)c3ccc(F)cc3)ccc2[nH]1 [FLUBENDAZOLE] |  |  | Z-SCORE [2]: flagged
27 | Nc1nc(F)nc2c1ncn2[C@@H]1O[C@H](CO)[C@@H](O)[C@@H]1O [FLUDARABINE, reference compound] |  | 0.7 | 
28 | CCOC(=O)c1ncn2c1CN(C)C(=O)c1cc(F)ccc1-2 [FLUMAZENIL] | 0.09 |  | 
29 | CC(=O)OCC(=O)[C@@]12OC(C)(C)O[C@@H]1C[C@H]1[C@@H]3C[C@H](F)C4=CC(=O)C=C[C@]4(C)[C@@]3(F)[C@@H](O)C[C@@]12C [FLUOCINOLONE ACETONIDE 21-ACETATE, reference compound] |  | 0.81 | 
30 | CC1(C)O[C@@H]2C[C@H]3[C@@H]4C[C@H](F)C5=CC(=O)C=C[C@]5(C)[C@@]4(F)[C@@H](O)C[C@]3(C)[C@]2(C(=O)CO)O1 [FLUOCINOLONE ACETONIDE, reference compound] |  | -0.16 | 
31 | CC(C)C(=O)Nc1ccc([N+](=O)[O-])c(C(F)(F)F)c1 [FLUTAMIDE, reference compound] |  | 0.85 | 
32 | CCC(=O)O[C@]1(C(=O)SCF)[C@H](C)C[C@H]2[C@@H]3C[C@H](F)C4=CC(=O)C=C[C@]4(C)[C@@]3(F)[C@@H](O)C[C@@]21C [FLUTICASONE PROPIONATE] | -0.31 |  | 
33 | O=c1[nH]c(=O)n(C2CCCO2)cc1F (stereo not shown) [FTORAFUR] | -0.09 |  | 
34 | NS(=O)(=O)c1cc(C(=O)O)c(NCc2ccco2)cc1Cl [FUROSEMIDE, reference compound] |  | 0.8 | 
35 | NC(=O)OCC(COC(N)=O)c1ccccc1 [Felbamate] | -0.25 |  | 
36 | CCOC(=O)C1=C(C)NC(C)=C(C(=O)OC)C1c1cccc(Cl)c1Cl (stereo not shown) [Felodipine, reference compound] |  | -1.97 | 
37 | O=C(NCC1CCCCN1)c1cc(OCC(F)(F)F)ccc1OCC(F)(F)F (stereo not shown) [Flecainide Acetate, reference compound] |  | -0.19 | 
38 | O=c1[nH]c(=O)n([C@H]2C[C@H](O)[C@@H](CO)O2)cc1F [Floxuridine, reference compound] |  | -0.39 | 
39 | OC(Cn1cncn1)(Cn1cncn1)c1ccc(F)cc1F [Fluconazole, reference compound] |  | 0.28 | 
40 | CC(N)C12CC3CC(CC(C3)C1)C2 (stereo not shown) [Flumadine, reference compound] |  | -0.97 | 
41 | CC1(C)O[C@@H]2C[C@H]3[C@@H]4C[C@H](F)C5=CC(=O)C=C[C@]5(C)[C@H]4[C@@H](O)C[C@]3(C)[C@]2(C(=O)CO)O1 [FluniSOLIDe, reference compound] |  | 2.03 | 
42 | CC(=O)[C@@]1(O)CC[C@H]2[C@@H]3C[C@H](C)C4=CC(=O)C=C[C@]4(C)[C@@]3(F)[C@@H](O)C[C@@]21C [Fluorometholone, reference compound] |  | -0.4 | 
43 | CN1CCN(C2=Nc3cc(F)ccc3Cc3ccccc32)CC1 [Fluperlapine] | -0.5 |  | 
44 | CC(C(=O)O)c1ccc(-c2ccccc2)c(F)c1 (stereo not shown) [Flurbiprofen, reference compound] |  | 0.7 | Z-SCORE [2]: -1.64
45 | COCCCC/C(=N\OCCN)c1ccc(C(F)(F)F)cc1 [Fluvoxamine] | -0.2 |  | 
46 | Nc1nc(=O)c2nc(CNc3ccc(C(=O)N[C@@H](CCC(=O)O)C(=O)O)cc3)cnc2[nH]1 [Folic acid, reference compound] |  | 0 | 
47 | Cc1ccc(C)c(OCCCC(C)(C)C(=O)O)c1 [GEMFIBROZIL, reference compound] |  | 0.52 | 
48 | CCC1=C(C)CN(C(=O)NCCc2ccc(S(=O)(=O)NC(=O)N[C@H]3CC[C@H](C)CC3)cc2)C1=O [GLIMEPIRIDE] | 0.02 |  | 
